Measured values as given in US8318504B2, “MRP2 efflux pathway prognostic method” (priority 2009, dated 2012).

How the values were obtained:
[1] = target: T1, OATP2B1 (Homo sapiens, UniProt O94956); assay: Inhibition by CLF of estrone-3-sulfate transport in CHO cells expressing OATP2B1; format: cell-based; conditions: 0, 5 or 50 μmol/L CLF, 1 μmol/L estrone-3-sulfate
T1 construct: expressed in transfected cells; host or cells: CHO cells (stably transfected; Treiber et al. 2007)
T1 sequence (O94956 1-709): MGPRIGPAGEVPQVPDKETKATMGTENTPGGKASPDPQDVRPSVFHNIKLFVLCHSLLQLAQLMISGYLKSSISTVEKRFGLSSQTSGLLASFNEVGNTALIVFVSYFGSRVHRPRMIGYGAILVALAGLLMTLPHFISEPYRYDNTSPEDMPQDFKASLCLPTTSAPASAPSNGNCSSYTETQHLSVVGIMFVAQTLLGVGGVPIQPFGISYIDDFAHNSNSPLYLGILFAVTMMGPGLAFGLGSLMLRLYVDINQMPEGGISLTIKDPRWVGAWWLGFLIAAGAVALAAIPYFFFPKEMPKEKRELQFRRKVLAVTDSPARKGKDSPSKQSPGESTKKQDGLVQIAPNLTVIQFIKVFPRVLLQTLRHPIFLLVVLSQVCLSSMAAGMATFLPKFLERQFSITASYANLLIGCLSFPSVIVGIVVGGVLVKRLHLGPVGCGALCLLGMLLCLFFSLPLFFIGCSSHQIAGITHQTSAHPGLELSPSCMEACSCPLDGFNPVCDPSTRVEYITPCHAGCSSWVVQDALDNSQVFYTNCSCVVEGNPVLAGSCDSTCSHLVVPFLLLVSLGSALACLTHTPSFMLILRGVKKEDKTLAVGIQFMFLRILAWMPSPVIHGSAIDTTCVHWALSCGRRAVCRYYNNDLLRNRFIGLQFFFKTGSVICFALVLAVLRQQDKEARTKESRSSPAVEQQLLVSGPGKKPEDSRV
Procedure: FIGS. 3A-3D relate to inhibition of transport activity of hepatocellular uptake transporters by CLF. CHO cells expressing NTCP, OATP1B1, OATP1B3 and OATP2B1 were incubated with 0, 5 or 50 μmol/L CLF and with the substrates, 2.5 μmol/L TC, 1 μmol/L estrone-3-sulfate, 10 μmol/L TC and 1 μmol/L estrone-3-sulfate, respectively. Data represent means±SD of triplicate determinations.
For all transport experiments, cells grown on 3 cm culture dishes were cultured for 24 hours in media supplemented with 5 mmol/L sodium-butyrate to increase expression levels of transfected transporters [Palermo D P et al., J Biotechnol 1991 June; 19(1):35-47]. • Transport experiments with uptake of radioactively labeled substrates: These experiments were performed as described by Huber R D et al. [Am J Physiol Cell Physiol 2007 February; 292(2):C795-C806]. • Transport experiments with uptake of CLF: Uptake was performed in the same buffers as for the radioactive substrates above. […] After complete solubilization, 1.5 ml was used to measure fluorescence in a Perkin-Elmer LS-5 luminescence-spectrometer set at λexe 486 nm (slit 10 nm) and λem 520 nm (slit 5 nm). Protein was determined with the bicinchoninic acid method using a kit from Interchim (Montfuçon, France). […]

[2] = target: T2, ABCB11 (Homo sapiens, UniProt O95342); assay: ATP-dependent transport of CLF into Sf21 membrane vesicles containing ABCB11; format: biochemical; conditions: compared with control vesicles
T2 construct: His tag (inferred from the anti-his probe used on the Western blot); made in house; host or cells: Sf21 insect cells, baculovirus (gift from Thompson); plasma membrane vesicles
T2 sequence (O95342 whole entry): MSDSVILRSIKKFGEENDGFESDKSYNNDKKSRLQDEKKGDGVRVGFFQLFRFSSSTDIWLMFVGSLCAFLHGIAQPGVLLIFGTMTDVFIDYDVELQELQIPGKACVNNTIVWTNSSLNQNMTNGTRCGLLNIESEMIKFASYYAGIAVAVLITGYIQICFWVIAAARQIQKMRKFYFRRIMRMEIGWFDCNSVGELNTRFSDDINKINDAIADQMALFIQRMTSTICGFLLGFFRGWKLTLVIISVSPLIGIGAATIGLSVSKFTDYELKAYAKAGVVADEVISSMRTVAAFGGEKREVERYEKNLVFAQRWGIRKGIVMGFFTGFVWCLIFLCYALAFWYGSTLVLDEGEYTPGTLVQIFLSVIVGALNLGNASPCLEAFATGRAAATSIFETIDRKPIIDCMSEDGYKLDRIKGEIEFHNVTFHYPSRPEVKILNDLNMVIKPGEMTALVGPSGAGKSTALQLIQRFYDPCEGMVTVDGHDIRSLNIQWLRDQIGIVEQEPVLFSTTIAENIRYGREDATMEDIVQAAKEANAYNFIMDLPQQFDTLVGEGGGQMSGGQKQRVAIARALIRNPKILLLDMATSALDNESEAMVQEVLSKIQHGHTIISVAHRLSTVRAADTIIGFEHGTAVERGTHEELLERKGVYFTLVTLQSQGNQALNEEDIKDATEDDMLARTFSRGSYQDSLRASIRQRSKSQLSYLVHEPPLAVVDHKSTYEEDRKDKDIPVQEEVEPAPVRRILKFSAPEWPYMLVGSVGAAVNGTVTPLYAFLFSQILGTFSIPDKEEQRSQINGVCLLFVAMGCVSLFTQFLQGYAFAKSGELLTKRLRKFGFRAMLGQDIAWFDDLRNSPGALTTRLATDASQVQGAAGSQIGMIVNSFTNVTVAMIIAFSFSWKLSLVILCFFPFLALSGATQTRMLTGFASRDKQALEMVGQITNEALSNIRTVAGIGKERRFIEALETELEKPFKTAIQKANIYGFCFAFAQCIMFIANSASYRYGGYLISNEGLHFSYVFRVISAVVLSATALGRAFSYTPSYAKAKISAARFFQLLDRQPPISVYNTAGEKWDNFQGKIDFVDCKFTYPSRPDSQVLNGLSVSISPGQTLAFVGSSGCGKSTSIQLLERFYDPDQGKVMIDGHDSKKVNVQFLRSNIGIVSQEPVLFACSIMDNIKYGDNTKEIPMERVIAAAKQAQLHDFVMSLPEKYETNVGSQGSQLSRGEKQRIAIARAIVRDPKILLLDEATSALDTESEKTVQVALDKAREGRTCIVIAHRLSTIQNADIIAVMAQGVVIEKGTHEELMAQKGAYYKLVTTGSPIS
Procedure: (§1) The production of recombinant baculovirus was as described by de Waart et al. [Liver Int 2006 April; 26(3):362-368]. ABCC3 and ABCG2-recombinant baculovirus were a kind gift from Borst [Breedveld P. et al., Cancer Res 2004 Aug. 15; 64(16):5804-5811 and Borst P. et al., J Biol Chem 2001 Dec. 7; 276(49):46400-46407.]. ABCB11-recombinant baculovirus was a kind gift from Thompson [Thompson R J et al., Gastroenterology 2002 November; 123(5):1649-1658]. Sf21 cells grown at 27° C. were infected with ABCB11, ABCC2, ABCC3 and ABCG2-cDNA containing baculovirus. Cells were harvested at 2-4 days after infection. Membrane vesicle preparation was as described by de Waart et al. [Liver Int 2006 April; 26(3):362-368].
(§2) Transport studies with membrane vesicles were performed using the rapid filtration technique as described by Heijn M et al. [Am J Physiol 1992 January; 262(1 Pt 1):C104-C110]. Radiolabel was measured with a scintillation counter. When CLF was used as a probe, filters were placed in a glass tube, 0.1% Triton-X-100 was added and the tubes vortexed. Samples were pipetted in 96-well plates (Kartell, Noviglio, Italy) and the amount CLF quantitated by measurement of fluorescence at λexe 485 nm and λcm 520 nm using a NovoStar (BMG-labtech, Offenburg, Germany).

[3] = target: T3, ABCC2 (Homo sapiens, UniProt Q92887); assay: ATP-dependent transport of CLF into Sf21 membrane vesicles containing ABCC2; format: biochemical; design: Vmax of ABCC2 mediated transport of CLF: unit not given here
T3 construct: made in house; host or cells: Sf21 insect cells, baculovirus; plasma membrane vesicles
T3 sequence (Q92887 whole entry): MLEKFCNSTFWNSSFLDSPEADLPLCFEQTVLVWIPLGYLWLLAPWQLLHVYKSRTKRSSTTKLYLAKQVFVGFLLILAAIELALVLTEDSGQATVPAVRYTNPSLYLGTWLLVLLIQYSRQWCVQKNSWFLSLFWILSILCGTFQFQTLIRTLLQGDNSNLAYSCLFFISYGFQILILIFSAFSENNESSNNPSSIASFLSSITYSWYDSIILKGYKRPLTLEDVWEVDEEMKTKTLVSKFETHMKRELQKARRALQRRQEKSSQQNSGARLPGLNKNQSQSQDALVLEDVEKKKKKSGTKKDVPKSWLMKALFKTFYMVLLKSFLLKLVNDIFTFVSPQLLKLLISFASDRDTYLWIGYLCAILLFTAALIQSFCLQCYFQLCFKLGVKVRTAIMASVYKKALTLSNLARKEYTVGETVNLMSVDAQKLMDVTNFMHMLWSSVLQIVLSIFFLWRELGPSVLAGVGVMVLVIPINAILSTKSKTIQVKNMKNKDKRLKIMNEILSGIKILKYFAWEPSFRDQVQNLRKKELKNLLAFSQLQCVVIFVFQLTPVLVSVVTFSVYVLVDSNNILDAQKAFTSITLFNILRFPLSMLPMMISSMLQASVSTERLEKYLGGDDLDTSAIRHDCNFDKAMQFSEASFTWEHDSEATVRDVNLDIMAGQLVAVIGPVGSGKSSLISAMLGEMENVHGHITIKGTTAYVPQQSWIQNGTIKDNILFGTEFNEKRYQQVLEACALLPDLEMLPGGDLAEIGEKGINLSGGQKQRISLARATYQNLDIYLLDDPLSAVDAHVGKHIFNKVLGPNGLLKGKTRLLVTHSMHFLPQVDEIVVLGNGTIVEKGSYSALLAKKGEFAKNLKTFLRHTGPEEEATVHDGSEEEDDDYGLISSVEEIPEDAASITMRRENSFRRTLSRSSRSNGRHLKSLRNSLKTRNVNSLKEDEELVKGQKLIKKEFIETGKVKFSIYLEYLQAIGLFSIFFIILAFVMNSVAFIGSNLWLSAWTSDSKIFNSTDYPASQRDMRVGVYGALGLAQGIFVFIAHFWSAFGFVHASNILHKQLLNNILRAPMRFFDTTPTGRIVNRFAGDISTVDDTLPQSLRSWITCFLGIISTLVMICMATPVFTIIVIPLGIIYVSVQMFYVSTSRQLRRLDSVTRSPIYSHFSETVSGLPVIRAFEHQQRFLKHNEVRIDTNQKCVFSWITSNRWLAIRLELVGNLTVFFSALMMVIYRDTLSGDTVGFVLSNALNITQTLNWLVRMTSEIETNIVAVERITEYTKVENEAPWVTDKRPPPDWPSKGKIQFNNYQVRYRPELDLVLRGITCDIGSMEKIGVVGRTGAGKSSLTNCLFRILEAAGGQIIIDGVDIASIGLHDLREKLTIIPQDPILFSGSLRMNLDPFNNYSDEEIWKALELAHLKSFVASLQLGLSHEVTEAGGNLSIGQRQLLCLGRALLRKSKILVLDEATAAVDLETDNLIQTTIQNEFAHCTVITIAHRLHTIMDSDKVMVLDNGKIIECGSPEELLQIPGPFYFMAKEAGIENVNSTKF
Procedure: as §1
as §2, with “Germany). […]” for “Germany).”

Structure (SMILES): CC(CCC(=O)NC(CCCCNC(=S)Nc1ccc(-c2c3ccc(=O)cc-3oc3cc(O)ccc23)c(C(=O)O)c1)C(=O)O)C1CCC2C3C(O)CC4CC(O)CCC4(C)C3CC(O)C12C (stereo not shown) [CLF, cholyl lysyl fluorescein]
- inhibition of transport of estrone-3-sulfate mediated by OATP2B1 by CLF [1]: much less efficiently
- ATP-dependent transport of CLF in ABCB11 containing membrane vesicles [2]: not higher than in control vesicles
- Vmax of ABCC2 mediated transport of CLF ([3]; 10 μg total protein, presence or absence of 4 mmol/L ATP): 436±215
- CLF transport in ABCC2 containing membrane vesicles ([3]; compared to control wild type Sf21 membrane vesicles): much higher CLF transport rates
